Test [1] has as its target T1, squalene synthetase from human HEPG2 cells (Homo sapiens, UniProt P37268).
T1 construct: The resulting pellet from the 34,000 rpm centrifugation, containing the squalene synthetase, was resuspended in 5 mL of enzyme suspension buffer; endogenous in cells; host or cells: HepG2 cells (ATCC HB 8065), pellet of the 34,000 rpm centrifugation (microsomal)
T1 sequence (P37268 1-417): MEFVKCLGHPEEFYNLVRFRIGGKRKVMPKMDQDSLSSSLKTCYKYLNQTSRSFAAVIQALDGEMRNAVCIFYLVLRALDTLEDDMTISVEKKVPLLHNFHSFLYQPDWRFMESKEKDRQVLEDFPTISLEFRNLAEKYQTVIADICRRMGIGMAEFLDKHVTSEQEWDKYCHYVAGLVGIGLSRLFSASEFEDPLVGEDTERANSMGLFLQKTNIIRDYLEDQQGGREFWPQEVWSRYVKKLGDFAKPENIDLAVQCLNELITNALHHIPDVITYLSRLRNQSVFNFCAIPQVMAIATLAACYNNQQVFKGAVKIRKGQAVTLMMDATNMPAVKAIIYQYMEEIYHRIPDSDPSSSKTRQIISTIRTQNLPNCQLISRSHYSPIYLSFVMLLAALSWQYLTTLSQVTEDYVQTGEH
Description: Squalene synthetase assay using HepG2 cell enzyme. Type of test: biochemical. Conditions: 3 μM 3H-farnesyl pyrophosphate, 30° C., 20 min. As to the method:
A. SQUALENE SYNTHETASE ASSAY USING HEPG2 CELL ENZYME
1. Preparation of Human HepG2 Cell Enzyme
Source: HEPG2 CELL LINE (Liver, hepatoblastoma, Human) ATCC No. HB 8065
Cell Growth and Maintenance: Culture Medium: Minimum essential medium (MEM) with non-essential amino acids, sodium pyruvate, and 10% fetal bovine serum. The medium was changed twice weekly. A confluent monolayer was acheived in 1 week. The growth medium was prepared as listed below.
Subculture Procedure: The medium was removed and washed with PBS (Phosphate-Buffered Saline 15.6 mM, pH 7.0). Fresh trypsin (0.25%)-EDTA (0.02%) with Hank's Balanced Salt solution was added and the flask was allowed to stand for a minute before the trypsin solution was removed. The flask was incubated at 37° C. until cells detached. Fresh medium was added and the cells were dispersed and dispensed into new flasks. Subcultivation ratio: 1:6.
Preparation of Delipidated Serum: Fetal calf serum (100 ml) and CAB-O-Sil (2 grams) were stirred overnight at 4° C. and centrifuged at 16,000 rpm for 5 hrs. […]
Harvest: The medium was removed and the cells were washed with PBS. […] Cells were counted (2.5×10^9 yield from 18 flasks (75 cm^2)), and resuspended in 10 mL of 50 mM HEPES (N-[2-Hydroxyethyl]piperazine-N'-[2-ethane-sulfonic acid]) containing 5 mM MgCl2, 2 mM MnCl2, 10 mM DTT (dithiothreitol), pH 7.5 (enzyme suspension buffer). […]

Test [2] has as its target T2, squalene synthetase, rat liver microsomes (Rattus norvegicus, UniProt Q02769).
T2 construct: from tissue; host or cells: liver microsomes of male Charles River CD rats fed 0.1% lovastatin
T2 sequence (Q02769 1-416): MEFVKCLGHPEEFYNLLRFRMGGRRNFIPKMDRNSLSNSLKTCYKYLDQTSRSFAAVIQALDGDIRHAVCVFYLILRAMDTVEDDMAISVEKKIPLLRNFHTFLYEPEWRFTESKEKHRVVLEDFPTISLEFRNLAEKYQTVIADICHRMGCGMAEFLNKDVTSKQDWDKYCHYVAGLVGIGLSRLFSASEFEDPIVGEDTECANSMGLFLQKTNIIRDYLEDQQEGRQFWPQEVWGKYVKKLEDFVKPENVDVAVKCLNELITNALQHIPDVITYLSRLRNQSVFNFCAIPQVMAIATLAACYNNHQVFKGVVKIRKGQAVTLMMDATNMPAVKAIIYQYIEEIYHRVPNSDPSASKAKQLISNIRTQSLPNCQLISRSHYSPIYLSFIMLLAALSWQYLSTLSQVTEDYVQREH
Kind of test: Squalene synthetase assay using rat liver enzyme. Type of test: biochemical. The following applies: rat liver microsomal enzyme, [4-14C]farnesyl pyrophosphate, 30° C., 20 min. As to the method:
B. SQUALENE SYNTHETASE ASSAY USING RAT LIVER ENZYME
Preparation of Rat Liver Microsomes: Male, Charles River CD rats (120 to 150 g) were fed a diet containing 0.1% lovastatin for 4 days. The livers from these rats were homogenized in 5 volumes (ml/g) of ice cold 50 mM HEPES (4-(2-hydroxyethyl)-1-piperazine-ethanesulfonic acid), 5 mM EDTA(ethylenediaminetetra-acetic acid) pH 7.5 with a Potter-Elvehjem type tissue grinder. The homogenate was centrifuged twice at 20,000×g for 15 minutes at 4° C., discarding the pellet each time. The supernatant was then centrifuged at 100,000×g for 1 hour at 4° C. The resulting microsomal pellet was resuspended in a volume of the above homogenizing buffer equal to one-fifth the volume of the original homogenate. This microsomal preparation has a protein concentration of about 7 mg/ml. The microsomal suspensions were stored in aliquots at -70° C. Squalene synthetase activity in these aliquots is stable for at least several months.
Partial Purification of Prenyl Transferase: Prenyl transferase was purified to use in the enzymatic synthesis of radiolabelled farnesyl pyrophosphate [FPP]. Prenyl transferase was assayed by the method of Rilling (Methods in Enzymology 110, 125-129 (1985)) and a unit of activity is defined as the amount of enzyme that will produce 1 μmole of farnesyl pyrophosphate per minute at 30° C. in the standard assay. […]

As usually defined, the IC50 is the midpoint of a concentration-inhibition curve. Lower therefore signals inhibition by little substance. With `CC(C/C=C/c1ccccc1)CC(C)CCCCCC(C(=O)O)C(O)(CC(=O)O)C(=O)O` (centres unmarked) [Compound IA], the IC50 is roughly 145 nM in test [1] and 767 nM in test [2].

The record behind these values is patent US5254727A, “Acyclic tricarboxylic acid compounds” (Merck & Co., Inc., priority 1992, dated 1993).
